Measurements reported in patent US8445224B2, “Method for assaying FTO (2-oxoglutarate dependent oxygenase) activity” (Isis Innovation Limited, priority 2007, dated 2013).

Biological target: T1, FTO (Mus musculus, UniProt Q8BGW1)
T1 construct: His tag (pET-28a) with peptide linker (N); made in house; host or cells: E. coli BL21-Gold(DE3)
Experiment: 2-oxoglutarate decarboxylation (uncoupled 2-OG turnover) assay with purified FTO
Type: biochemical
Protocol: FTO was incubated with all necessary cofactors, in various buffers lacking a specific reagent (Fe^2+, ascorbate or DTT) and in the presence of N-oxalyl-glycine (NOG), a generic Fe^2+-2OG-dioxygenase inhibitor at a concentration of 0.5 mM. In addition to Fe^2+ (added in the form of (NH4)2Fe(II)(SO4)2) and 2OG, dithiothreitol (DTT) and sodium ascorbate were added to the reaction mixture: DTT is a reducing agent that helps to maintain Fe^2+.
These were diluted to a total volume of 100 μl with 50 mM TRIS, pH 7.5. All reagents were mixed and pipetted into a 5 ml plastic screw cap tube, the FTO was added to the tube as a separate drop. A 500 μl Eppendorf tube containing 200 μl Hyamine hydroxide (Fisher Scientific, CO2 trapping agent) was added to each tube and tubes were closed with a rubber septum. After incubation in an environmental shaker at 37° C. for half an hour, 200 μl methanol was added to the contents and the tubes were put on ice for 30 minutes to quench the reaction. The Eppendorf tubes containing the hyamine hydroxide were transferred to scintillation vials, mixed with 5 ml OptiPhase Liquid Scintillation Cocktail (Fisher Scientific) and total ^14C counts quantified using a Beckman L56500 Multi-Purpose Scintillation Counter.

T1 sequence (Q8BGW1 whole entry): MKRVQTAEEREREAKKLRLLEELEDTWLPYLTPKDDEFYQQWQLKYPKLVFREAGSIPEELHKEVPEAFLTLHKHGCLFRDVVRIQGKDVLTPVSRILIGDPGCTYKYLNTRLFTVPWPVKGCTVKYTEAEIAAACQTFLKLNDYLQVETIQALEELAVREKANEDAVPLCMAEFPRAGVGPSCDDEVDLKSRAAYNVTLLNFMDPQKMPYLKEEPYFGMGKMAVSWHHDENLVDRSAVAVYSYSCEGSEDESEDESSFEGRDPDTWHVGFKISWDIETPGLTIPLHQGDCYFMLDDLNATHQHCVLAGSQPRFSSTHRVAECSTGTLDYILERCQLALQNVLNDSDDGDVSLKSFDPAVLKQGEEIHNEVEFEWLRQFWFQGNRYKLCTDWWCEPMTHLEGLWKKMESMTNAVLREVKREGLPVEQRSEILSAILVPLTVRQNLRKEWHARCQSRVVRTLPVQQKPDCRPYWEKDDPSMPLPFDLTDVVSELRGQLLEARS

Compound	Stimulation of FTO 2-OG turnover activity (uncoupled turnover)	Inhibition of FTO 2-OG turnover (uncoupled) (no methylated DNA substrate)
O=S(=O)([O-])[O-].[Fe+2] [FeSO4]	stimulated	
O=C(O)C(=O)N[C@H](Cc1ccccc1)C(=O)O [NOFD, N-oxalyl D-phenylalanine]		did not inhibit
